Experimental data taken from patent publication US11098055B2, “Ester ACC inhibitors and uses thereof” (Gilead Apollo, LLC, priority 2015, dated 2021).
Values after ≈ are worked out from the molar mass of the structure shown. Like-named read-outs stand apart in the source and are kept apart here.

Columns and labels:
hACC2 = hACC2 (Homo sapiens, UniProt O00763); experiment: In vitro ACC2 inhibition assay (ADP-Glo), human ACC2; format: biochemical
Experimental: An exemplary procedure for the in vitro ACC inhibition assay, which can be used to determine the inhibitory action of compounds of the invention toward either human (hACC2) or fungal (fACC2) ACC2, follows. The ADP-Glo™ Kinase Assay kit from Promega was used. The ADP-Glo™ Kinase Assay is a luminescent ADP detection assay to measure enzymatic activity by quantifying the amount of ADP produced during an enzyme reaction. The assay is performed in two steps; first, after the enzyme reaction, an equal volume of ADP-Glo™ Reagent is added to terminate the reaction and deplete the remaining ATP. Second, the Kinase Detection Reagent is added to simultaneously convert ADP to ATP and allow the newly synthesized ATP to be measured using a luciferase/luciferin reaction. Luminescence can be correlated to ADP concentrations by using an ATP-to-ADP conversion curve. The detailed procedure is as follows. 50 μL of the compound being tested (600 μM in DMSO) was added to a 384-well dilution plate. The compound was diluted 1:3 in succession in DMSO for each row for 11 wells. 0.5 μL ACC2 working solution was added to 384-well white Optiplate assay plate. 0.5 μL diluted compound solution in each column from step 2 was added to assay plate, each row containing 2 replicates. For the last 2 rows, 0.5 μL negative control (DMSO) was added in one row and 0.5 μL positive control (compound I-97) in the other. The plates were incubated at room temperature for 15 minutes. 5 μL substrate working solution was added to each well to initiate reaction. Final ACC2 reaction concentrations consist of: 5 nM ACC2, 20 μM ATP, 20 μM acetyl-CoA, 12 mM NaHCO3, 0.01% Brij35, 2 mM DTT, 5% DMSO, test compound concentrations: 30 μM, 10 μM, 3.33 μM, 1.11 μM, 0.37 μM, 0.123 μM, 0.0411 μM, 0.0137 μM, 0.00457 μM, 0.00152 μM, and 0.00051 μM. Plates were incubated at room temperature for 60 minutes. 10 μL ADP glo reagent was added. Plates were incubated at room temperature for 40 minutes. 20 μL kinase detection reagent was added. Plates were incubated at room temperature for 40 minutes, and then read on a Perkin Elmer EnVision 2104 plate reader for luminescence as Relative Light Units (RLU).
Data for each concentration, as well as the positive and negative controls, were averaged, and the standard deviation calculated. Percent inhibition was calculated by the formula: 100×(average negative control−compound)/(average negative control−average positive control). The IC50 for each compound was calculated by fitting the data with a non-linear regression equation: Y=Bottom+(Top−Bottom)/(1+10^((Log IC50−X)*HillSlope)), where X is the log of compound concentration and Y is percent inhibition.

[1] = tested on: Collectotrichum graminicola (Cg); experiment: Growth inhibition assay of fungal pathogens; format: cell-based; settings: 48 h, read-out: Concentration at 90% Inhibition Cg
Experimental: (§1) Compounds of the present invention were evaluated in a growth inhibition assay to determine the ability to control the growth of fungal pathogens, such as Botrtyis cinerea (Bc), Collectotrichum graminicola (Cg), Diplodia maydis (Dm), Fusarium moniliforme (Fm), Fusarium virguhforme (Fv), Phytophthora capsici (Pc), Rhizoctonia solani (Rs), and Septoria tritici (St). Compounds to be tested were dissolved in DMSO at 2.5 mg/ml to produce compound stock solutions (“stocks”). Stocks were diluted with DMSO by a five-fold dilution in a 96-well stock plate, and two sets of final concentrations of 50, 10, and 2 ppm or 2, 0.4, and 0.08 ppm were obtained in vitro. A set of positive controls was also prepared, with various concentrations of Soraphen (2, 0.4, and 0.08 ppm), Metalaxyl (1.1, 0.22, and 0.04 ppm), and Metconazole (2, 0.4, and 0.08 ppm or 0.2, 0.04, and 0.008 ppm) after the five-fold dilutions. Negative controls on each plate included 2% DMSO, water, and a blank (media+2% DMSO). Fungal spores were isolated from previously sub-cultured plates of Botrtyis cinerea (Bc), Collectotrichum graminicola (Cg), Diplodia maydis (Dm), Fusarium moniliforme (Fm), Fusarium virguliforme (Fv), Phytophthora capsici (Pc), and Septoria tritici (St). The isolated spores were diluted to individual concentrations with a 17% V8 liquid media. For Rhizoctonia solani (Rs) and Pythium irregulare, 1.5 mm mycelial plugs were used in place of spores and ¼ Potato Dextrose Broth (PDB) was used for dilution. The spore concentrations and plug sizes were based on growth curves generated at 48 hours for each pathogen. In a second 96-well plate, the spores or mycelial plugs, media, diluted compound solutions, and controls were combined. Once the compound was added, a true final concentration of compound in each well was measured by an OD600 reading, which adjusted for any compound precipitation that might have occurred in the well. Plate readings were repeated at both 24 and 48 hours. The blank negative control was used as a background subtraction. Additional visual ratings were performed at both 24 and 48 hours for checking on precipitation and confirming efficacy. Visual and OD600 ratings of the compounds at 48 hours were compared to the 2% DMSO negative control, and the percent of pathogen growth inhibition was determined based on those values.

Botrtyis cinerea (Bc) = experiment: Growth inhibition assay of fungal pathogens; format: cell-based; settings: 48 h, read-out: Concentration at 90% Inhibition Bc
Experimental: as §1

Septoria tritici (St) = experiment: Growth inhibition assay of fungal pathogens; format: cell-based; settings: Zymoseptoria tritici, 48 h, read-out: Concentration at 90% Inhibition St
Experimental: as §1

[2] = tested on: Fusarium virguliforme (Fv); experiment: Growth inhibition assay of fungal pathogens; format: cell-based; settings: 48 h, read-out: Concentration at 90% Inhibition Fv
Experimental: as §1

[3] = tested on: Fusarium moniliforme (Fm); experiment: Growth inhibition assay of fungal pathogens; format: cell-based; settings: Fusarium verticillioides, 48 h, read-out: Concentration at 90% Inhibition Fm
Experimental: as §1

Rhizoctonia solani (Rs) = experiment: Growth inhibition assay of fungal pathogens; format: cell-based; settings: 48 h, read-out: Concentration at 90% Inhibition Rs
Experimental: as §1

[4] = tested on: Phytophthora capsici (Pc); experiment: Growth inhibition assay of fungal pathogens; format: cell-based; settings: 48 h, read-out: Concentration at 90% Inhibition Pc
Experimental: as §1

Diplodia maydis (Dm) = experiment: Growth inhibition assay of fungal pathogens; format: cell-based; settings: Stenocarpella maydis, 48 h, read-out: Concentration at 90% Inhibition Dm
Experimental: as §1

Sequence of hACC2 (O00763 whole entry): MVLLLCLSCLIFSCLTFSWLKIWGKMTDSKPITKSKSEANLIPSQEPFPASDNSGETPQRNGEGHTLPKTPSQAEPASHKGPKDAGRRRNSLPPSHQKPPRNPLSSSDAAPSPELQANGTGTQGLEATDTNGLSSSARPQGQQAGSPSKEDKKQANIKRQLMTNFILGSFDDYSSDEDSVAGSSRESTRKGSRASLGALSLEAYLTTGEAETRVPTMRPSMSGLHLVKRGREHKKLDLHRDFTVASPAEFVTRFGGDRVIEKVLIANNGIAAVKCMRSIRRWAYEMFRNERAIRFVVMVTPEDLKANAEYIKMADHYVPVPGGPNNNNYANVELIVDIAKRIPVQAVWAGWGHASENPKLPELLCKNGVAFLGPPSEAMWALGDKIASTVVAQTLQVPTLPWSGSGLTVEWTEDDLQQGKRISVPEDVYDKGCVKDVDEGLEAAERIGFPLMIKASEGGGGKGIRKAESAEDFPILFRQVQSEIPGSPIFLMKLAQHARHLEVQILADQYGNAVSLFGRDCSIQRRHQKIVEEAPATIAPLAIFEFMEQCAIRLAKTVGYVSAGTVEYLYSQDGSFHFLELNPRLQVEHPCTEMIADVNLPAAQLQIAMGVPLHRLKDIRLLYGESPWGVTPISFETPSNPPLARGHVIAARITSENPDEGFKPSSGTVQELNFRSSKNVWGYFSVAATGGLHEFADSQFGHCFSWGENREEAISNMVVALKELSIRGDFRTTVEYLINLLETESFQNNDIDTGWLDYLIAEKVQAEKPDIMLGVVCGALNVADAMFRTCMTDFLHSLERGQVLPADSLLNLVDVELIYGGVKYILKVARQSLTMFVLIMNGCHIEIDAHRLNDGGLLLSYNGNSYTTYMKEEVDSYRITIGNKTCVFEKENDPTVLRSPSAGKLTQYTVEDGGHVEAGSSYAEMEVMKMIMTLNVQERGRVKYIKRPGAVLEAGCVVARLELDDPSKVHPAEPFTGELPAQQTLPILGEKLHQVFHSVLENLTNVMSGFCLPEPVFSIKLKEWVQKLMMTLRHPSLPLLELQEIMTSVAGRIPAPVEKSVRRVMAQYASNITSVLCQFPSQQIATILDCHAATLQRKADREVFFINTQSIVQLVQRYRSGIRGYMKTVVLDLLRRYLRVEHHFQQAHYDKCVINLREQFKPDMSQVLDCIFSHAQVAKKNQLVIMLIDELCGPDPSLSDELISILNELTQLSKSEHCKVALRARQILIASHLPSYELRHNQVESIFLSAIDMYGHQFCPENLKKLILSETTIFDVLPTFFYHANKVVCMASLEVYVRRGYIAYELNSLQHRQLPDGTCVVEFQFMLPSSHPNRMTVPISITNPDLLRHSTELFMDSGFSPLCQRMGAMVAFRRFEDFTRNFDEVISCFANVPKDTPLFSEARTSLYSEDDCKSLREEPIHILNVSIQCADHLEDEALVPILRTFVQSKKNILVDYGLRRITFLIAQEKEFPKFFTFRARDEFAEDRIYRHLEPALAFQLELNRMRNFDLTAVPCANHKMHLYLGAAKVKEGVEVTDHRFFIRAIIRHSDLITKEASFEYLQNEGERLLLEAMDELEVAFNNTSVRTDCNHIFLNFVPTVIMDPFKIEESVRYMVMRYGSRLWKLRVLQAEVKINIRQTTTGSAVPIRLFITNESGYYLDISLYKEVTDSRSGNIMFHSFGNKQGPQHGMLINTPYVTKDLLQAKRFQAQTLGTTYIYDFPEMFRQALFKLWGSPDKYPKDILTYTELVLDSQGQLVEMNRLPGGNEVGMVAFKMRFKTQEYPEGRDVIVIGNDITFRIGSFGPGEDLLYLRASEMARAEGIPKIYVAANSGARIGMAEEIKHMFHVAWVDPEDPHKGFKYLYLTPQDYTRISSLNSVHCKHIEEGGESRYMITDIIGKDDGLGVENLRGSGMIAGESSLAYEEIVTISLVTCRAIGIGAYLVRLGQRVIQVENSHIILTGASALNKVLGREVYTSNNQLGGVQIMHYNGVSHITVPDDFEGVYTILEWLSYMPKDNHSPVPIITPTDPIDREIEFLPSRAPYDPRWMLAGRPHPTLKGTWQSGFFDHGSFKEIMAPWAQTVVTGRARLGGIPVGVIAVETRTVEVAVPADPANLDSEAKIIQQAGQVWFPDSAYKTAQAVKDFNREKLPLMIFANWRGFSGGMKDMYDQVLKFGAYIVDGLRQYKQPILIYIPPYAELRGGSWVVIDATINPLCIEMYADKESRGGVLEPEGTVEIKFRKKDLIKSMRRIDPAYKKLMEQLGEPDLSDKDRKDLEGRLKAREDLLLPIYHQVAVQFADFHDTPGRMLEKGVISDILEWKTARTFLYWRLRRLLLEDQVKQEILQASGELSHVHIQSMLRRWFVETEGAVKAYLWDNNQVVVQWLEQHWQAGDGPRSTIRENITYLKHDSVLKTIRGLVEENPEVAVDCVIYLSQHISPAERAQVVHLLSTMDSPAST

Structure (SMILES)	IC50 (hACC2; Table 2b (additional results))	IC90 ([1]; Table 4b)	IC90 (Botrtyis cinerea (Bc); Table 4b)	IC90 (Septoria tritici (St); Table 4b)	IC90 ([2]; Table 4b)	IC90 ([3]; Table 4b)	IC90 (Rhizoctonia solani (Rs); Table 4b)	IC90 ([4]; Table 4b)	IC90 (Diplodia maydis (Dm); Table 4b)	IC50 (hACC2; Table 2a)	IC90 ([1]; Table 4a)	IC90 (Botrtyis cinerea (Bc); Table 4a)	IC90 (Septoria tritici (St); Table 4a)	IC90 ([2]; Table 4a)	IC90 ([3]; Table 4a)	IC90 (Rhizoctonia solani (Rs); Table 4a)	IC90 ([4]; Table 4a)	IC90 (Diplodia maydis (Dm); Table 4a)
CCOC(=O)c1sc2c(c1C)c(=O)n([C@@H](C)C(=O)NC(C)C)c(=O)n2C[C@H](O)c1cc(F)ccc1OC [Compound I-44, ethyl 1-((R)-2-(5-fluoro-2-methoxyphenyl)-2-hydroxyethyl)-3-((S)-1-(isopropylamino)-1-oxopropan-2-yl)-5-methyl-2,4-dioxo-1,2,3,4-tetrahydrothieno[2,3-d]pyrimidine-6-carboxylate]	≥ 0.04 µM	≥ 50 µg/mL	10 µg/mL (≈ 18.7 µM)	≥ 50 µg/mL	10 µg/mL (≈ 18.7 µM)	≥ 50 µg/mL	≥ 50 µg/mL	≥ 50 µg/mL	≥ 50 µg/mL	–	–	–	–	–	–	–	–	–
CCOC(=O)c1sc2c(c1C)c(=O)n(C(C)(C)C(=O)N1CCCC1)c(=O)n2C[C@H](OCCOC)c1cc(F)ccc1OC [Compound I-13, (R)-ethyl 1-(2-(5-fluoro-2-methoxyphenyl)-2-(2-methoxy-ethoxy)ethyl)-5-methyl-3-(2-methyl-1-oxo-1-(pyrrolidin-1-yl)propan-2-yl)-2,4-dioxo-1,2,3,4-tetrahydrothieno[2,3-d]pyrimidine-6-carboxylate]	–	2 µg/mL (≈ 3.23 µM)	2 µg/mL (≈ 3.23 µM)	≥ 50 µg/mL	2 µg/mL (≈ 3.23 µM)	0.4 µg/mL (≈ 0.645 µM)	10 µg/mL (≈ 16.1 µM)	≥ 50 µg/mL	10 µg/mL (≈ 16.1 µM)	0.01 to 0.04 µM	2 µg/mL (≈ 3.23 µM)	2 µg/mL (≈ 3.23 µM)	≥ 50 µg/mL	2 µg/mL (≈ 3.23 µM)	0.4 µg/mL (≈ 0.645 µM)	≥ 50 µg/mL	≥ 50 µg/mL	≥ 50 µg/mL
CCOC(=O)c1sc2c(c1C)c(=O)n([C@@H](C)C(=O)NC(C)C)c(=O)n2C[C@H](OCCC#N)c1cc(F)ccc1OC [Compound I-20, ethyl 1-((R)-2-(2-cyanoethoxy)-2-(5-fluoro-2-methoxy-phenyl)ethyl)-3-((S)-1-(isopropylamino)-1-oxopropan-2-yl)-5-methyl-2,4-dioxo-1,2,3,4-tetrahydrothieno[2,3-d]pyrimidine-6-carboxylate]	0.003 to 0.01 µM	10 µg/mL (≈ 17 µM)	2 µg/mL (≈ 3.4 µM)	≥ 50 µg/mL	10 µg/mL (≈ 17 µM)	0.4 µg/mL (≈ 0.68 µM)	≥ 50 µg/mL	≥ 50 µg/mL	10 µg/mL (≈ 17 µM)	–	–	–	–	–	–	–	–	–
CCOC(=O)c1sc2c(c1C)c(=O)n(C(C)(C)C(=O)NC(C)C)c(=O)n2C[C@H](OCC(C)(C)C#N)c1cc(F)ccc1OC [Compound I-37, ethyl (R)-1-(2-(2-cyano-2-methylpropoxy)-2-(5-fluoro-2-methoxyphenyl)ethyl)-3-(1-(isopropylamino)-2-methyl-1-oxopropan-2-yl)-5-methyl-2,4-dioxo-1,2,3,4-tetrahydrothieno[2,3-d]pyrimidine-6-carboxylate]	0.01 to 0.04 µM	0.4 µg/mL (≈ 0.634 µM)	0.4 µg/mL (≈ 0.634 µM)	≥ 50 µg/mL	0.4 µg/mL (≈ 0.634 µM)	0.08 µg/mL (≈ 0.127 µM)	2 µg/mL (≈ 3.17 µM)	≥ 50 µg/mL	0.4 µg/mL (≈ 0.634 µM)	–	–	–	–	–	–	–	–	–
CCNC(=O)[C@@H](C)n1c(=O)c2c(C)c(C(=O)OCC)sc2n(C[C@H](OCCC#N)c2cc(F)ccc2OC)c1=O [Compound I-41, ethyl 1-((R)-2-(2-cyanoethoxy)-2-(5-fluoro-2-methoxy-phenyl)ethyl)-3-((R)-1-(ethylamino)-1-oxopropan-2-yl)-5-methyl-2,4-dioxo-1,2,3,4-tetrahydrothieno[2,3-d]pyrimidine-6-carboxylate]	0.01 to 0.04 µM	10 µg/mL (≈ 17.4 µM)	10 µg/mL (≈ 17.4 µM)	≥ 50 µg/mL	≥ 50 µg/mL	2 µg/mL (≈ 3.48 µM)	≥ 50 µg/mL	≥ 50 µg/mL	≥ 50 µg/mL	–	–	–	–	–	–	–	–	–
CCNC(=O)C(C)(C)n1c(=O)c2c(C)c(C(=O)OCC)sc2n(C[C@H](O)c2cc(F)ccc2OC)c1=O [Compound I-39, ethyl (R)-3-(1-(ethylamino)-2-methyl-1-oxopropan-2-yl)-1-(2-(5-fluoro-2-methoxyphenyl)-2-hydroxyethyl)-5-methyl-2,4-dioxo-1,2,3,4-tetrahydrothieno[2,3-d]pyrimidine-6-carboxylate]	0.01 to 0.04 µM	≥ 50 µg/mL	10 µg/mL (≈ 18.7 µM)	≥ 50 µg/mL	2 µg/mL (≈ 3.73 µM)	2 µg/mL (≈ 3.73 µM)	0.08 µg/mL (≈ 0.149 µM)	≥ 50 µg/mL	≥ 50 µg/mL	–	–	–	–	–	–	–	–	–
CCOC(=O)c1sc2c(c1C)c(=O)n(C(C)(C)C(=O)NC(C)C)c(=O)n2C[C@H](OCCOC)c1cc(F)ccc1OC [Compound I-11, (R)-ethyl 1-(2-(5-fluoro-2-methoxyphenyl)-2-(2-methoxy-ethoxy)ethyl)-3-(1-(isopropylamino)-2-methyl-1-oxopropan-2-yl)-5-methyl-2,4-dioxo-1,2,3,4-tetrahydrothieno[2,3-d]pyrimidine-6-carboxylate]	0.01 to 0.04 µM	2 µg/mL (≈ 3.29 µM)	2 µg/mL (≈ 3.29 µM)	≥ 50 µg/mL	0.4 µg/mL (≈ 0.658 µM)	0.08 µg/mL (≈ 0.132 µM)	10 µg/mL (≈ 16.5 µM)	≥ 50 µg/mL	2 µg/mL (≈ 3.29 µM)	0.01 to 0.04 µM	2 µg/mL (≈ 3.29 µM)	2 µg/mL (≈ 3.29 µM)	≥ 50 µg/mL	0.4 µg/mL (≈ 0.658 µM)	0.08 µg/mL (≈ 0.132 µM)	≥ 50 µg/mL	≥ 50 µg/mL	2 µg/mL (≈ 3.29 µM)
